Source: US6465476B1, “Immuno-modulator exhibiting antimicrobial and anti-mycrobacterial activities, method for producing the same and pharmaceutical preparation” (priority 1997, dated 2002)

Tests used:
Solubility = assay type: physicochemical
Method: It is soluble in dimethylformamide, dimethylsulfoxide, deluted acids and alkalies; f. p.=255-256° C. The structure of matter is confirmed by the data of PMR-spectroskopy.

[1] = test system: chlamydious infection, PCND; assay: Double blind clinical test, chlamydiosis and pulmonary chronic nonspecific diseases; assay type: in vivo, human
Method: The investigation was carried out randomizedly by a “double blind method” on 45 patients aged 25 to 49 years.
The group I consisting of 15 patients (10 persons with pulmonary chronic nonspecific diseases (PCND), 6 of them having chronic catarrhal obstructive bronchitis and 4 having chronic catarrhal nonobstructive bronchitis; 4 persons with chlamydious infection and one person with ureaplasmic infection) received the preparation claimed as monotherapy in a daily dose of 200 mg during 30 days. The group II consisting of 15 patients (8 persons with chlamydious infection, 7 persons with PCND, 5 of them having chronic catarrhal bronchitis, 2 having bronchiectatic disease) received the preparation of the present invention as monotherapy in a daily dose of 400 mg during 30 days. The group III consisting of 15 patients (13 persons with PCND, 7 of them having chronic catarrhal nonobstructive bronchitis and 6 having chronic catarrhal obstructive bronchitis; 2 persons with chlamydious infection) received a placebo.

agent of leprosy = assay: Example 1, patient X, border-line tuberculoid leprosy; assay type: in vivo, human; parameters: histological index: scale not given here; Leucocytes / T-lymphocytes: unit not given here
Source text: The patient X was admitted to a clinic with a diagnosis “border-line tuberculoid leprosy”. They had been considering themself ill for two years. They supposed that they had been infected in Africa where they had worked 8 years ago and used to receive vegetables from lepers. On the skin of the back, on the skin of the lateral abdiminal surfaces, on the left hip and shin, the left temple area of the head there were yellowish-reddish papules with a rust-coloured hue and sized 1.5 times 2 cm to 4 times 6 cm with no sensitivity in ther center. Disorder of sensitivity was noted along the length of peroneal and elbow nerves. The agent of leprosy was neither detected in the scrape from the nasal mucosa nor in the lymph on the bacterioscopic investigation. […] In the surface layers of derma there were multiple infiltrates and in the deeper layers of the skin there were focal and strand infiltrates. The histological index was equal to 1.1. The patient was prescribed a treatment in the form of isophonum to be taken internally 0.2 g each time twice a day. After 3.5 months all the elements (plaques) on the skin completely resolved and were replaced by hyperpigmented spots which after 4 months completely gained the colour of a normal skin. […] The patient was not hospitalyzed and received home treatment without interrupting their work. […] The histological index equaled 0. When histological investigation was repeated after 7 months with the purpose of transfering the patient under dispensary observation, the agent of leprosy was not detected either, in the surface layer of the derma were noted some small infiltrates out of lymphocytes with epithelioid cells in the form of accumulations.
In deeper layers of the skin there were small infiltrates around the blood vessels. It was decided to prolong the treatment of the patient for 6 months by administering isophonum internally in combination with diuciphonum.

[2] = test system: human mononucleator cells (T-lymphocytes); assay: Proliferation of T-lymphocytes in cell culture in vitro (3H-thymidine); assay type: cell-based
Method: The influence of the test compound on the proliferation of T-lymphocytes was studied on a model in vitro. To this end human mononucleator cells were preliminarily incubated during three hours in the presence of different concentrations of each test substance. Each test substance was studied over a wide range of its concentrations, that is from […]. As a negative control there was added a physiological 0.9 percent solution of NaCl. The results of the influence of novel compoubds on the intensity of proliferation of human lymphocytes in the cell culture in vitro are represented in Table 3.

[3] = test system: antibody-forming cells (AFC) in the spleens; assay: Antibody-forming cells in the spleen, immunodeficiency caused by irradiation (Jeme-Nordin's procedure); assay type: in vivo, mice F1 (CBA×C57BL/6); conditions: irradiated mice 4 Gy
Method: Determination of immunotropic activity of isophonum was carried out. Immunotropic activity of isophonum was determined on a model of immunodeficiency caused by irradiation. To create an immunodeficient state the mice F1 (CBA×C57BL/6) were irradiated with gamma-rays on a radioterapeutic apparatus in a dose of 4 Gy (Gy is the irradiation unit gray) at an irradiation dose power of 0.55 Gr/min. The number of antibody-forming cells (AFC) in the spleens was calculated by Jeme-Nordin's procedure. Isophonum and diuciphonum were introduced per os over a wide range of doses. The investigation results are represented in Table 1.

leprosy mycobacteria = assay: Example 3, patient I., lepromatose-typed leprosy, combination treatment; assay type: in vivo, human
Method: They had been ill for 8 years. BIN=66.8-10.8-5.5 where BIN means bacteriological index. […] HI=5,4 where HI means histological index. The patient was ordered the following treatment: 200 mg of isophonum internally twice a day, 200 mg of diuciphonum i.m. and 100 mg dimocifon internally twice a day.
After 8 months of treatment the agent of leprosy vanished in the scrape of nasal mucosa, BIN was 8.3-14.2-4.2, the immunologic parameters normalized. Atfer a year of treatment many of the infiltrates resolved and the other sharply diminished in size and became soft and elastic with their colour changed from rust-brown to cyanotic. BIN became 5.7-4.8-5.3.
There came lymphocytes in moderate numbers. […] The patient continues to undergo treatment.

[4] = after a year, combination with diuciphonum and dimocifon

SMILES: Cc1[nH]c(=O)[nH]c(=O)c1S(=O)(=O)NNC(=O)c1ccncc1.O [Isophonum, N-(6-methyl-2,4-dioxo-1,2,3,4-tetrahydro-5-pyrimidinsulfon)-N′-isonicotinoylhydrazide hydrate]
- solubility in dimethylformamide, dimethylsulfoxide, deluted acids and alkalies (Solubility): soluble
- solubility in water or usual organic solvents (Solubility): difficult to dissolve
- side effects ([1]; dose of 200 mg and dose of 400 mg): does not have any side effects
- number of patients with improvement of clinico-immunologic indices ([1]; group I, 15 patients, 200 mg per day, 30 days): 14 people
- number of patients with improvement of clinico-immunologic parameters ([1]; group II, 15 patients, 400 mg daily, 30 days): 14 persons
- signs of individual intolerance ([1]; one patient of group I, 200 mg per day, 3rd day of intake): nausea and vomiting
- time after which all the elements (plaques) on the skin completely resolved (agent of leprosy; 0.2 g twice a day): 3.5 months
- histological index (agent of leprosy; 3 months later, 0.2 g twice a day): 0
- histological index (agent of leprosy; before treatment): 1.1
- B-lymphocytes, % (agent of leprosy; day 0 (before treatment)): 12%
- Leucocytes (agent of leprosy; day 0 (before treatment)): 6.1
- Lymphocytes, % (agent of leprosy; day 0 (before treatment)): 18%
- T-helpers, % (agent of leprosy; day 0 (before treatment)): 50%
- T-lymphocytes (agent of leprosy; day 0 (before treatment)): 57
- T-suppressors (agent of leprosy; day 0 (before treatment)): 4
- B-lymphocytes, % (agent of leprosy; day 180, 0.2 g twice a day): 17%
- Leucocytes (agent of leprosy; day 180, 0.2 g twice a day): 6.8
- Lymphocytes, % (agent of leprosy; day 180, 0.2 g twice a day): 30%
- T-helpers, % (agent of leprosy; day 180, 0.2 g twice a day): 63%
- T-lymphocytes (agent of leprosy; day 180, 0.2 g twice a day): 80
- T-suppressors (agent of leprosy; day 180, 0.2 g twice a day): 27
- Phagocytosis (agent of leprosy; first column (no day head; presumably day 0)): 30
- Phagocytosis (agent of leprosy; second column (no day head; presumably day 180)): 5
- Intensity of involvement of 3H-thymidine in DNA of cultivated cells, PHA-activated ([2]; 0.01 μg/ml): 19995 impulse per minute
- Intensity of involvement of 3H-thymidine in DNA of cultivated cells, Spontaneous ([2]; 0.01 μg/ml): 901 impulse per minute
- Intensity of involvement of 3H-thymidine in DNA of cultivated cells, PHA-activated ([2]; 0.03 μg/ml): 24736 impulse per minute
- Intensity of involvement of 3H-thymidine in DNA of cultivated cells, Spontaneous ([2]; 0.03 μg/ml): 1152 impulse per minute
- Intensity of involvement of 3H-thymidine in DNA of cultivated cells, PHA-activated ([2]; 0.1 μg/ml): 37890 impulse per minute
- Intensity of involvement of 3H-thymidine in DNA of cultivated cells, Spontaneous ([2]; 0.1 μg/ml): 1818 impulse per minute
- Intensity of involvement of 3H-thymidine in DNA of cultivated cells, PHA-activated ([2]; 1 μg/ml): 25455 impulse per minute
- Intensity of involvement of 3H-thymidine in DNA of cultivated cells, Spontaneous ([2]; 1 μg/ml): 1272 impulse per minute
- Intensity of involvement of 3H-thymidine in DNA of cultivated cells, PHA-activated ([2]; 5 μg/ml): 20120 impulse per minute
- Intensity of involvement of 3H-thymidine in DNA of cultivated cells, Spontaneous ([2]; 5 μg/ml): 871 impulse per minute
- optimal concentration ([2]; proliferation of T-cells): 0.1 µg/mL
- mitogenetic activity ([2]; spontaneous proliferation): possesses the proper mitogenetic activitiy of its own
- AFC-number in the spleen ([3]; 10 μg per mouse per os): 1013 ± 126
- Immune response stimulation index ([3]; 10 μg per mouse per os): 3.63 ± 0.57
- AFC-number in the spleen ([3]; 100 μg per mouse per os): 1173 ± 125
- Immune response stimulation index ([3]; 100 μg per mouse per os): 4.28 ± 0.8
- AFC-number in the spleen ([3]; 1000 μg per mouse per os): 1216 ± 124
- Immune response stimulation index ([3]; 1000 μg per mouse per os): 4.46 ± 0.9
- HI (histological index) (leprosy mycobacteria; [4]): 4.8
- amount of B-lymphocytes (leprosy mycobacteria; [4]): 12%
- amount of T-helpers (leprosy mycobacteria; [4]): 66%
- amount of T-lymphocytes (leprosy mycobacteria; [4]): 85%
- immunoregilatory index (leprosy mycobacteria; [4]): 3.4
- total number of lymphocytes (leprosy mycobacteria; [4]): 51%
- HI (histological index) (leprosy mycobacteria; patient I., on hospitalization): 5,4
